Entries after “also recorded” stand apart in the source; their conditions may differ. Square brackets hold non-standard residues; d marks the D form. Ends that are not written are not given here.
Experiments:
[1] = tested on: isolated preparations of guinea pig ileal smooth muscle; experiment: Opioid activity on electrically stimulated isolated guinea pig ileum (GPI); type: cell-based; conditions: inhibition of electrically stimulated contractions of GPI segment, Krebs solution 34 °C, 10^−9 to 10^−6 M, tests in duplicate
Description: Dermorphin analogs have been tested using the standard guinea pig ileum (GPI) model, The GPI is rich in µ-opioid receptors. Ten peptides were suppressed via electrical stimulation contractions of segment GPI in the studied concentration range (10^−9 to 10^−6 M) (Table 1).
The opioid receptor antagonist naloxone (10^−6 M) prevented or weakened the action of the compounds under investigation, confirming the opioid mechanism of their action. […] Thus, new dermorphin analogs can be agonists of µ-type opioid receptors. However, this needs to be verified using molecular modeling methods in further research. Attila M. et al. (1993) investigated the potential binding of 16 dermorphin analogs to µ and δ opioid receptors in brain cells.
The peripheral opioid activity of the peptides was assessed according to known methodology. A segment of guinea pig ileum (approximately 1 cm long) was placed into a 10 mL organ bath containing Krebs solution at 34 °C. Single pulses stimulated the segment of the ileum (1 g) with a duration of 1 ms and a frequency of 0.1 Hz at 80 V. Contractions were recorded in isometric mode using a K30 sensor (Hugo Sachs Elektronic KG, March, Germany).
All tests for each molecule were performed in duplicate. Based on the data obtained, dose-effect curves were plotted, and the IC50 index was determined as the concentration of the substance that causes 50% of the maximal inhibitory effect.

rats [2] = experiment: Water immersion tail-flick test in rats; type: in vivo, Wistar rats; conditions: for duration of analgesic effect: intraperitoneal, 5 mg/kg, water tail-flick 56 °C
rats [3] = experiment: Open field test in rats with intranasal administration; type: in vivo, Wistar rats; conditions: n = 7, open field 2 min
Description: The experiments were conducted in an automated “open-field” chamber that registered and processed computer data. They were conducted in two replicates on 64 male Wistar rats weighing 240–260 g. The “open-field” is a round arena with a diameter of 80 cm, lined with three concentric circles and eight diameters. During the experiment, the rat was placed in the center of the arena. Motor activity (measured as the number of segments passed), the number of departures from the arena wall, vertical activity (the number of rises on the hind legs), and the number of touches of the muzzle with the paws (washing) were visually assessed for two minutes. A 500-watt household electric bell and a 15-watt red lamp were placed 80 cm above the arena. The study was conducted in silence and under the light of the red lamp.
Animals were divided into groups: untrained intact animals and trained experimental animals. All animals were divided into five groups: • In the intact group, animals without training were injected with 0.05 mL of physiological solution one minute before being placed in the “open field.” (n = 33). • The control group consisted of animals adapted after a 5-day administration of 0.5 mL of saline (n = 10). • Single drug action at a 15 μg/kg dose was administered to adapted animals (n = 7). • Adapted animals (n = 7) received a 50 μg/kg dose of a single drug action. • Single drug action at a 150 μg/kg dose was administered to adapted animals (n = 7).

mice [4] = experiment: Tail-flick test (radiant heat) in mice; type: in vivo; conditions: 50 mg/kg; for analgesic action in tail-flick test: 30 and 60 min after administration
Description: (§1) Two tests, “tail-flick” and “hot plate,” were used to evaluate the analgesic action of peptides administered intraperitoneally and intra-gastrically.
The pain stimulus was applied locally to the tail as radiant heat using a Tail Flick Analgesia Meter (Hugo Sachs Elektronik, Germany). A tail-flick latent period of 6 s was considered the maximum time for applying the stimulus (Equation (1): tmax—6 s, maximal duration of pain stimulus).
(§2) The control groups consisted of mice injected with solvent. The tested substances were administered to the animals intraperitoneally and intragastrically in a volume of 0.1 mL of saline per 10 g of body weight. The pain response threshold was measured before and 30 and 60 min after administration.
(§3) In both tests, the final indicator of analgesic action was defined as a 50% or more significant effect on the number of animals in each experimental group, expressed as a percentage of the total number of animals in that group. […]

mice [5] = experiment: Hot plate test in mice; type: in vivo; conditions: 50 mg/kg, 30 and 60 min after administration
Description: as §1, §2
The “hot plate” test evaluates the pain reaction to thermal irritation of the mouse paw. The Hot Plate Model 7280 (Ugo Basile S.R.L., Gemonio, Italy) analgesimeter was used for this test. The maximal duration of the pain stimulus (thermal irritation) was set at 60 s.
as §3

µ-opioid receptors = tested on: µ-opioid receptors; parameters: method as in PMID 3033543; conditions: cited from earlier work
δ-opioid receptors = tested on: δ-opioid receptors; parameters: method as in PMID 3033543; conditions: rat brain; cited from earlier work
κ receptors = tested on: κ receptors; parameters: method as in PMID 3033543; conditions: rat brain; cited from earlier work
[6] = intracerebroventricular, 1.0 μg/kg

In the case of “Cyclo-[L-Lys(H-Tyr-D-Ala-Phe-D-Ala)-L-Glu(OH)] (head to tail) [D6]”, the “Index IC50” value [1] is reported as 570 nM.
With “H-Y[dA]F[dA]YPS-NHMe (SMILES CNC(=O)[C@H](CO)NC(=O)[C@@H]1CCCN1C(=O)[C@H](Cc1ccc(O)cc1)NC(=O)[C@@H](C)NC(=O)[C@H](Cc1ccccc1)NC(=O)[C@@H](C)NC(=O)[C@@H](N)Cc1ccc(O)cc1) [D2]” the “Index IC50” value [1] was 9.5 nM, the analgesic effect (rats [2]; [6]) was “potent analgesia” and the observed side effects (rats [2]; [6]) was “severe muscle tension, and numbness”. The observed side effects (rats [2]; intracerebroventricular, 2.5 μg/kg) was “complete immobility and catatonic effects”, the “analgesic effect (A)” value (rats [2]; intracerebroventricular, 2.5 μg/kg, n = 7) was 100% and the observed side effects (rats [2]; intranasal, 0.5 µg/kg) was “short-term state of stupor”. The analgesic effect (rats [2]; intranasal, 1.0 µg/kg) was “maximum long-lasting analgesia”, the observed side effects (rats [2]; intranasal, 1.0 µg/kg) was “complete stupor” and the “duration of analgesic effect” value (rats [2]) was “up to 5 h”. For the same compound, the Defecation (rats [3]; 15 µg/kg) was 0.92 ± 0.26, the Dive (rats [3]; 15 µg/kg) was 6.17 ± 1.63 and the Grooming (rats [3]; 15 µg/kg) was 1.58 ± 0.42. The Path (rats [3]; 15 µg/kg) was 23.83 ± 7.16, the Stand (rats [3]; 15 µg/kg) was 8.83 ± 3.03 and the Urination (rats [3]; 15 µg/kg) was 0.25 ± 0.13. For the same compound, the Defecation (rats [3]; 50 µg/kg) was 1.10 ± 0.18, the Dive (rats [3]; 50 µg/kg) was 3.40 ± 0.76 and the Grooming (rats [3]; 50 µg/kg) was 0.90 ± 0.46. For the same compound, the Path (rats [3]; 50 µg/kg) was 21.80 ± 6.16, the Stand (rats [3]; 50 µg/kg) was 4.50 ± 1.35 and the Urination (rats [3]; 50 µg/kg) was 0.20 ± 0.13. For the same compound, the Defecation (rats [3]; 150 µg/kg) was 0.60 ± 0.22, the Dive (rats [3]; 150 µg/kg) was 2.90 ± 0.99 and the Grooming (rats [3]; 150 µg/kg) was 1.00 ± 0.39. The Path (rats [3]; 150 µg/kg) was 14.80 ± 3.80, the Stand (rats [3]; 150 µg/kg) was 4.70 ± 1.45 and the Urination (rats [3]; 150 µg/kg) was 0.10 ± 0.10. For the same compound, the “analgesic action in tail-flick test” value (mice [4]; intragastric) was “active in the “tail-flick” test only 30 min after administration”, the “analgesic action in hot plate test” value (mice [5]; intragastric) was “no significant analgesic effect” and the “analgesic action in hot plate test” value (mice [5]; intraperitoneal) was “significant activity only at 30 min; also recorded: active only for 30 min”.
In the case of “Cyclo-[L-Lys(H-Tyr-D-Ala-Phe-D-Ala-Tyr-Pro-Ser)-L-Glu(L-Trp-NH2)] (head to tail) [D3]”, the “Index IC50” value [1] is reported as 33 nM, the “analgesic action in tail-flick test” value (mice [4]; intragastric) is reported as “active after 30 and 60 min” and the “duration of activity in tail-flick test” value (mice [4]; intraperitoneal) is reported as 60 min. For the same compound, the “analgesic action in tail-flick test” value (mice [4]; intraperitoneal) was “high analgesic activity”, the “analgesic action in hot plate test” value (mice [5]; intragastric) was “no significant analgesic effect” and the “analgesic action in hot plate test” value (mice [5]; intraperitoneal) was “highest activity for 60 min; also recorded: active as tramadol”.
With “H-Tyr-D-Ala-Phe-Gly-Tyr-Pro-Ser-NH2 [D1, reference compound]” the “Index IC50” value [1] was 2.5 nM, the “duration of analgesic effect” value (rats [2]) was “approximately 1 h” and the “analgesic action in tail-flick test” value (mice [4]; intragastric) was “did not exhibit analgesic action”. For the same compound, the “duration of activity in tail-flick test” value (mice [4]; intraperitoneal) was 60 min, the “analgesic action in hot plate test” value (mice [5]; intragastric) was “did not exhibit analgesic action” and the “analgesic action in hot plate test” value (mice [5]; intraperitoneal) was “active as tramadol”. The “affinity for µ-opioid receptors” value (µ-opioid receptors) was “very high affinity”, the “affinity for δ-opioid receptors” value (δ-opioid receptors) was “low affinity” and the “affinity for κ receptors” value (κ receptors) was “low affinity”.
For “H-Y[dA]F[dA]-OH (SMILES C[C@@H](NC(=O)[C@H](Cc1ccccc1)NC(=O)[C@@H](C)NC(=O)[C@@H](N)Cc1ccc(O)cc1)C(=O)O) [D10, reference compound]”, the “Index IC50” value [1] was 1000 nM.
With “RY[dA]FG-OH (N-terminus assumed; SMILES C[C@@H](NC(=O)[C@H](Cc1ccc(O)cc1)NC(=O)[C@@H](N)CCCNC(=N)N)C(=O)N[C@@H](Cc1ccccc1)C(=O)NCC(=O)O) [D8]” the “Index IC50” value [1] was 3000 nM.
For “Cyclo-[L-Lys(H-Tyr-D-Ala-Phe-D-Ala-Tyr-Pro-Ser)-L-Glu(L-Trp-OH)] (head to tail) [D4]”, the “Index IC50” value [1] was 11 nM, the “analgesic action in tail-flick test” value (mice [4]; intragastric) was “active after 30 and 60 min” and the “analgesic action in tail-flick test” value (mice [4]; intraperitoneal) was “high analgesic activity”. For the same compound, the “analgesic action in hot plate test” value (mice [5]; intragastric) was “no significant analgesic effect” and the “analgesic action in hot plate test” value (mice [5]; intraperitoneal) was “moderately active; also recorded: active as tramadol”.
For “H-RY[dA]F[dA]-OH (SMILES C[C@@H](NC(=O)[C@H](Cc1ccccc1)NC(=O)[C@@H](C)NC(=O)[C@H](Cc1ccc(O)cc1)NC(=O)[C@@H](N)CCCNC(=N)N)C(=O)O) [D9]”, the “Index IC50” value [1] was 1000 nM.
For `COc1cccc(C2(O)CCCCC2CN(C)C)c1` (stereo not shown) [tramadol, reference compound], the “analgesic action in tail-flick test” value (mice [4]; intragastric) was “active” and the “analgesic action in hot plate test” value (mice [5]; intragastric) was “no significant analgesic effect”.
With “Cyclo-[L-Lys(H-Tyr-D-Ala-Phe-D-Ala)-L-Glu-(L-TrpOMe)] (head to tail) [D7]” the “Index IC50” value [1] was 2000 nM.
In the case of “H-Y[dA]F[dA]YPS-OH (SMILES C[C@@H](NC(=O)[C@H](Cc1ccccc1)NC(=O)[C@@H](C)NC(=O)[C@@H](N)Cc1ccc(O)cc1)C(=O)N[C@@H](Cc1ccc(O)cc1)C(=O)N1CCC[C@H]1C(=O)N[C@@H](CO)C(=O)O) [D5]”, the “Index IC50” value [1] is reported as 760 nM.

From publication PMC12429696, “The Neurotropic Activity of Novel Dermorphin Analogs Active in Systemic and Noninvasive Administration” (International Journal of Molecular Sciences, 2025)
